Drawing on patent US20240299353A1, “COMPOSITIONS AND METHODS FOR TREATING […] 5-MEO-DMT” (Alvarius Pharmaceuticals Ltd., priority 2021, published 2024), this text covers GR expression for two compounds.

The assay relates to GR. The assay can be described thus: Western blot of GR in hippocampus, chronic cocaine ± 5-MeO-DMT. Format: in vivo, Male Wistar rats. The text has this: Male Wistar rats aged 7 weeks were acclimatized to the facility for 1 week prior to the beginning of the study. […] Animals were euthanized 23- or 119-hours following vehicle or 5-MeO-DMT administration.
Following euthanasia brain regions of interest were isolated. Briefly, the olfactory bulbs were removed before the brain was placed in a rat brain matrix (FIG. 2A). Sterile blades were inserted at positions 2 and 3 (FIG. 2B) to extract a coronal slice containing the Bregma+˜0.2-+˜2.2 coordinates (FIG. 2C). From this tissue slice a blunted 12 G needle was used to punch dissect the NAc and dorsal striatum (DS) (FIG. 2D-2E) identified using the rat brain atlas (Panxinos and Watson 2nd edition). The PFC, hippocampus (Hip) and amygdala (Amyg) were then blunt dissected (FIG. 3A-3D). All regions were frozen in liquid nitrogen and stored at −80° C. until processed.
These treatment groups were used for the molecular assessment of addiction-linked markers.
Determination of protein concentration—a bicinchoninic acid assay (BCA, ThermoFisher) was conducted to determine the total protein concentration in tissue lysates following manufacturer's instructions. […] For tissue lysates a 1:10 dilution was performed with cell lysis buffer to ensure absorbance values lay within the working range established by the standards. […] The plate was covered and incubated for 30 mins at 37° C. before absorbance was read at 562 nm on a plate reader (SpectraMax M3). The absorbance values were used to form a standard curve of known protein concentrations and protein concentration of samples were derived using the equation of the line. […]
SDS-PAGE and Western Blotting—Following equalisation of protein concentrations, 6× sample loading buffer (15% SDS, 15% […], 50% glycerol, 0.01% bromophenol blue, […]) was added to each sample using a dilution factor of 1:5 of the total volumes before boiling at 100° C. for 5 mins. […] The percentage of acrylamide in the resolving or stacking gel was determined by the molecular weight of the protein of interest. […]
Background: In western blotting, separated proteins are transferred to a membrane and probed.

As for `COc1ccc2[nH]cc(CCN(C)C)c2c1` [5-MeO-DMT, 5-methoxy-N,N-dimethyltryptamine], the GR expression result (24 h and 120 h, 5-MeO-DMT) is reported as “no 5-Meo-associated regulation of GR”.

Turning to `COC(=O)[C@H]1[C@@H](OC(=O)c2ccccc2)C[C@@H]2CC[C@H]1N2C.Cl` [cocaine, cocaine hydrochloride, reference compound], the GR expression entry is, setting by setting: (24 h, cocaine, p=0.0434, no post hoc differences) “significantly affected GR expression”; (120 h, cocaine effect) “not detectable”.
